Assay results as given in US20150368195A1, “INDOLINE COMPOUNDS FOR TREATMENT AND/OR PREVENTION OF INFLAMMATION DISEASES” (Taipei Medical University, priority 2014, published 2015).
Entries after “also recorded” stand apart in the source; their conditions may differ.

Legend:
histone H3 (Acetyl-H3) = assay: histone H3 acetylation, Western blot, HIG-82 synoviocytes; type: cell-based; conditions: 3 μM MPT0G009 or 60 μM SAHA; 6, 12, 24 h; starting at 6 h
collagen I = assay: TGF-β-induced collagen I production, Western blot; type: cell-based, human; conditions: WI-38 lung fibroblasts; 1 μM pretreatment; TGF-β 10 ng/mL 24 h
Protocol: Western blot analysis was performed. First, WI-38 lung fibroblasts were incubated with different concentrations of MPT0E028 (0.01, 0.03, 0.1, 0.3, or 1 μM) (FIG. 10A) or MPT0G009 (0.01, 0.03, 0.1, 0.3, or 1 μM) (FIG. 10B) for 30 min before and during incubation for 2 h with TGF-β (10 ng/mL). WI-38 lung fibroblasts were incubated with 1 μM MPT0E028 and MPT0G009 for 30 min and following another incubation for 2 h with 1 U/ml thrombin (FIG. 10C) and 10 nM ET-1 (FIG. 10D). The collagen I production from WI-38 lung fibroblasts stimulated by 10 ng/mL TGF-β for 24 h was inhibited with 1 μM MPT0E028 and MPT0G009 pretreatment (FIG. 10E).
WI-38 cells, a normal human embryonic lung fibroblast cell line, were obtained from American Type Culture Collection (Manassas, Va.). […]
Western blot analyses were performed as described previously (Chen B C, Chang Y S, Kang J C, Hsu M J, Sheu J R, Chen T L, et al. Peptidoglycan induces nuclear factor-kappaB activation and cyclooxygenase-2 expression via Ras, Raf-1, and ERK in RAW 264.7 macrophages. J Biol Chem 2004; 279:20889-97). […] The immunoreactivity was detected using enhanced chemiluminescence (ECL) following the manufacturer's instructions. Quantitative data were obtained using a computing densitometer with scientific imaging systems (Kodak, Rochester, N.Y.). […]

HDAC3 = assay: HDAC isoform protein levels, Western blot, RA-FLS; type: cell-based; conditions: 12 or 24 h; 1 μM MPT0G009 or 30 μM SAHA
Protocol: Then cells were harvested and cell lysates were prepared for Western blot analysis of the indicated proteins. (FIG. 5C) RA-FLS were incubated for 1 h with or without the proteasome inhibitor, MG132 (1 μM). […] Results shown are representative of three independent experiments.

[1] = tested on: tumor necrosis factor-α (TNF-α); assay: LPS-induced TNF-α production in RAW 264.7 macrophages; conditions: Mus musculus, RAW264.7, read-out: IC50 TNF-α
prostaglandin E2 (PGE2) = assay: LPS-induced PGE2 production in RAW 264.7 macrophages; type: cell-based, Mouse
Protocol: Furthermore, the anti-inflammatory effects of MPT0G009 was evaluated. […] These supernatants were then assayed for PGE2, NO, and IL-6.

RA-FLS [2] = assay: cell cycle distribution by flow cytometry (propidium iodide); type: cell-based; conditions: 24 h
Text: (§1) (FIG. 1A) Structure of MPT0G009. […] Results in (FIGS. 1B-E) and (FIG. 1G) are means±SEM's for three independent experiments, *p<0.05 and **p<0.01 compared with no added inhibitor.

[3] = tested on: adjuvant-induced arthritis; assay: adjuvant-induced arthritis (AIA) model; conditions: MPT0G009 25 mg/kg
Protocol: (FIG. 8B) Hind paw volumes in the indicated group of rats were measured using a digital plethysmometer on the indicated day after AIA induction. […] (FIG. 8D) Serum levels of interleukin (IL)-1β (left panel) and IL-6 (right panel) on day 21 as measured by enzyme-linked immunosorbent assay (ELISA). […] (FIG. 8F) The bone mineral density (BMD, in mg/mm^3) and the bone mineral content (BMC, in mg) values for the bone tissue of the tarsus were analyzed using CT Analysis Software.

HIG-82 synoviocytes = assay: SRB anti-proliferation assay; type: cell-based; conditions: 24 or 48 h incubation
Text: as §1

RA-FLS [4] = assay: SRB anti-proliferation assay; type: cell-based; conditions: 24 or 48 h incubation
Text: as §1

cyclooxygenase-2 (COX-2) = assay: LPS-induced COX-2 protein expression, Western blot, RAW264.7; type: cell-based, Mouse; conditions: RAW264.7, 0.1-10 μM, LPS 25 ng/mL 24 h
Protocol: Then the cells were harvested and whole cell extracts were prepared for Western blot analysis for iNOS and COX-2. The relative protein expressions are presented as mean±SEM for four replicates. *p<0.05 compared to the LPS-treated group.

p21 = p21 expression by flow cytometry or western blot in RA-FLS; type: cell-based; conditions: 24 h, 1 μM MPT0G009 or 3 μM SAHA
Text: as §1

[5] = day 21, ELISA, SAHA 200 mg/kg, indomethacin 1 mg/kg
[6] = oral daily days 2 to 21, SAHA 200 mg/kg, indomethacin 1 mg/kg, vs vehicle

Structure (SMILES): COc1ccc(S(=O)(=O)N2CCc3cc(C=CC(=O)NO)ccc32)cc1 [Compound 9, 3-[1-(4-methoxybenzenesulfonyl)-2,3-dihydro-1H-indol-5-yl]-N-Hydroxyacrylamide]
- acetylation of histone H3 in HIG-82 synoviocytes (histone H3 (Acetyl-H3)): significant hyperacetylation of histone H3
- collagen I production (collagen I): inhibited
- levels of HDAC3 in RA-FLS (HDAC3): decreased levels of HDAC3
- IC50 [1]: 520 nM
- PGE2 production by RAW264.7 cells (prostaglandin E2 (PGE2); MPT0G009 0.1, 1, 10 μM, SAHA 0.3, 3, 30 μM, LPS 25 ng/mL 24 h): inhibited
- IC50 (prostaglandin E2 (PGE2); Mus musculus, RAW264.7, LPS-stimulated RAW 264.7 macrophages, mean ± SEM, three experiments): 520 nM
- subG1 peak (cellular apoptosis) (RA-FLS [2]; MPT0G009 1-1000 nM, SAHA 3-3000 nM): did not increase the subG1 peak
- G0/G1 phase arrest (RA-FLS [2]; all concentrations of both agents): G0/G1 phase arrest was observed
- bone destruction (micro-computed tomography) [3]: ameliorated
- bone mineral density (BMD) and bone mineral content (BMC) [3]: prevented the decrease
- cartilage degradation (safranin O staining of ankle joints) [3]: markedly reduced
- decrease of osteoblasts [3]: apparently ameliorated
- formation of osteoclasts (TRAP stain) [3]: significantly decreased
- leukocyte infiltration, synovitis (hematoxylin and eosin staining) [3]: significantly reduced
- levels of acetyl-histone H3 (immunohistochemical staining) [3]: increased levels
- synoviocytes proliferation and inflammation (KI-67, COX-2 staining) ([3]; 25 mg/kg): inhibition; also recorded: suppresses
- serum levels of IL-1β [3, 5]: significant decreases
- serum levels of IL-6 [3, 5]: significant decreases
- arthritis scores ([3]; day 21, SAHA 200 mg/kg, indomethacin 1 mg/kg, vs vehicle): significant reductions
- paw swelling [3, 6]: significant reductions
- paw volume [3, 6]: significant reductions
- proliferation of HIG-82 synoviocytes (HIG-82 synoviocytes): concentration-dependent anti-proliferative effects
- proliferation of RA-FLS (RA-FLS [4]): concentration-dependent anti-proliferative effects
- COX-2 protein expression (cyclooxygenase-2 (COX-2)): concentration-dependently inhibitory effects
- COX-2 protein expression (cyclooxygenase-2 (COX-2); listed as compound 9): significantly inhibited
- expression of p21 (p21): significantly increased
